Among the data in patent US20260256751A1, “COMBINATION OF BETA-2-ADRENERGIC RECEPTOR AGONISTS AND GLP-1 RECEPTOR AGONISTS FOR USE IN TREATING HYPERGLYCAEMIA” (ATROGI AB, priority 2023, published 2026) are Emax values, retold here.

The subject of assay [1] is differentiated L6-myotubes. The experiment in a line: Glucose uptake screen (Biological example 1 of WO 2019/053427). It is filed as cell-based. The following applies: compound at 10 μM, activity relative to isoproterenol at 10 μM, read-out: Biological example 1 of WO 2019/053427 (GU). The method in brief: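 Uptake was read out as ^3H-2-deoxyglucose (50 nM, 10 min) radioactivity in NaOH lysates. Beforehand, overnight-starved, differentiated L6 myotubes received compound at 1×10^−5 M with ICI-118551 present for 1 h 40 min, followed by fresh agonist for a further 20 min in glucose-free medium.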

Assay [2] has as its system differentiated L6-myotubes. The experiment in a line: cAMP production relative to isoprenaline (Biological example 2 of WO 2019/053427). The format is cell-based. The following applies: 0.25 h, compound at 10 μM, activity relative to isoproterenol at 10 μM. The method in brief:
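Values are cAMP levels relative to isoprenaline at equal concentration (final 1×10^−5 M for both). Stimulation lasted 15 min in differentiated L6 myotubes, using HBSS buffer (pH 7.4) containing 1 mM IBMX, 5 mM HEPES and 1% BSA.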

In the case of `CCC[C@H]1CCC[C@H]([C@@H](O)c2ccc(F)cc2)N1` [Compound 105, (S)-[(2R,6S)-6-propyl-2-piperidyl](p-fluorophenyl)methanol], the Emax at 10 µM in assay [1] was 25 to 50%; in assay [2], under 25%.

As to `CCC[C@H]1CCC[C@H]([C@@H](O)c2ccccc2F)N1` [Compound 106, (S)-[(2R,6S)-6-propyl-2-piperidyl](o-fluorophenyl)methanol], the figures for the Emax at 10 µM in assay [1] and in assay [2] were 25 to 50% and under 25%, respectively.

As to `CCC[C@@H]1CCC[C@H]([C@@H](O)c2ccccc2F)N1` [Compound 107, (S)-[(2R,6R)-6-propyl-2-piperidyl](o-fluorophenyl)methanol], the results for the Emax at 10 µM in assay [1] and in assay [2] were 25 to 50% and under 25%, respectively.

As to `CC(C)(C)NC[C@H](O)c1ccncc1F` [Compound 108, (R)-2-(tert-butylamino)-1-(3-fluoro-4-pyridyl)-1-ethanol], the Emax at 10 µM in assay [1] is 25 to 50%; in assay [2], under 25%.

Consider `CC1(C)CC[C@H]([C@@H](O)c2cccc(F)c2)N1` [Compound 109, (S)-[(R)-5,5-dimethyl-2-pyrrolidinyl](m-fluorophenyl)methanol], for which the Emax at 10 µM in assay [1] was 25 to 50%; in assay [2], under 25%.

For `CC1(C)CC[C@H]([C@H](O)c2cccc(F)c2)N1` [Compound 110, (R)-[(R)-5,5-dimethyl-2-pyrrolidinyl](m-fluorophenyl)methanol], the Emax at 10 µM is over 75% in assay [1] and under 25% in assay [2].

Turning to `CC1(C)CC[C@H]([C@@H](O)c2cccc(O)c2)N1` [Compound 111, m-{(S)-[(R)-5,5-dimethyl-2-pyrrolidinyl]hydroxymeth-yl}phenol], the Emax at 10 µM in assay [1] was 50 to 75%; in assay [2] it was under 25%.

In the case of `CC1(C)CC[C@H]([C@H](O)c2cccc(O)c2)N1` [Compound 112, m-{(R)-[(R)-5,5-dimethyl-2-pyrrolidinyl]hydroxymeth-yl}phenol], the Emax at 10 µM is over 75% in assay [1] and under 25% in assay [2].

For the compound `CCC[C@@H]1CCC[C@@H]([C@@H](O)c2cccc(O)c2)N1` [Compound 113, (S)-[(2S,6R)-6-propyl-2-piperidyl](m-hydroxyphenyl)methanol], the Emax at 10 µM in assay [1] is 50 to 75%; in assay [2] it was under 25%.

Consider `CCC[C@@H]1CCC[C@@H]([C@@H](O)c2cccc(Cl)c2)N1` [Compound 114, (S)-[(2S,6R)-6-propyl-2-piperidyl](m-chlorophenyl)methanol], for which the Emax at 10 µM in assay [1] was 25 to 50%; in assay [2], under 25%.

`CCC[C@@H]1CCC[C@@H]([C@H](O)c2cccc(Cl)c2)N1` [Compound 115, (R)-[(2S,6R)-6-propyl-2-piperidyl](m-chlorophenyl)methanol]: the Emax at 10 µM is over 75% in assay [1] and under 25% in assay [2].

`CCC[C@@H]1CCC[C@@H]([C@H](O)c2cccc(F)c2)N1` [Compound 116, (R)-[(2S,6R)-6-propyl-2-piperidyl](m-fluorophenyl)methanol]: the values for the Emax at 10 µM in assay [1] and in assay [2] were 25 to 50% and under 25%, respectively.

Turning to `CC(C)(C)CNC[C@H](O)c1cccc(F)c1` [Compound 117, (R)-1-(m-flurophenyl)-2-(neopentylamino)-1-ethanol], the figures for the Emax at 10 µM in assay [1] and in assay [2] were 25 to 50% and under 25%, respectively.

`O[C@@H](CNC1(C(F)(F)F)CC1)c1cccc(F)c1` [Compound 118, (R)-1-(m-fluorophenyl)-2-[1-(trifluoromethyl)cyclopro-pylamino]-1-ethanol]: the Emax at 10 µM in assay [1] is 50 to 75%; in assay [2], under 25%.

`CCC[C@H]1CCC[C@@H]([C@@H](O)c2cccc(F)c2)N1` [Compound 119, (S)-[(2S,6S)-6-propyl-2-piperidyl](m-fluorophenyl)methanol]: the Emax at 10 µM in assay [1] was 25 to 50%; in assay [2], under 25%.

For `CCC[C@H]1CCC[C@@H]([C@H](O)c2cccc(F)c2)N1` [Compound 120, (R)-[(2S,6S)-6-propyl-2-piperidyl](m-fluorophenyl)methanol], the Emax at 10 µM is 50 to 75% in assay [1] and under 25% in assay [2].

Turning to `CCC[C@H]1CCC[C@@H]([C@@H](O)c2cccc(O)c2)N1` [Compound 121, (S)-[(2S,6S)-6-propyl-2-piperidyl](m-hydroxyphenyl)methanol], the Emax at 10 µM in assay [1] was over 75%; in assay [2], under 25%.

Turning to `CCC[C@H]1CCC[C@@H]([C@H](O)c2cccc(O)c2)N1` [Compound 122, (R)-[(2S,6S)-6-propyl-2-piperidyl](m-hydroxyphenyl)methanol], the values for the Emax at 10 µM in assay [1] and in assay [2] were 50 to 75% and under 25%, respectively.

Take `CCC[C@H]1CCC[C@@H]([C@H](O)c2cccc(Cl)c2)N1` [Compound 123, (R)-[(2S,6S)-6-propyl-2-piperidyl](m-chlorophenyl)methanol]: the Emax at 10 µM in assay [1] was 25 to 50%; in assay [2] it was under 25%.

Turning to `CCC[C@H]1CC[C@H]([C@H](O)c2cccc(F)c2)N1` [Compound 124, (R)-[(2R,5S)-5-propyl-2-pyrrolidinyl](m-fluorophenyl)methanol], the Emax at 10 µM was 50 to 75% in assay [1] and under 25% in assay [2].

As for `CCC[C@H]1CC[C@H]([C@H](O)c2cccc(O)c2)N1` [Compound 125, m-{(R)-[(2R,5S)-5-propyl-2-pyrrolidinyl]hydroxymeth-yl}phenol], the Emax at 10 µM in assay [1] was 50 to 75%; in assay [2], under 25%.

As for `CCC[C@@H]1CC[C@H]([C@@H](O)c2cccc(F)c2)N1` [Compound 126, (S)-[(2R,5R)-5-propyl-2-pyrrolidinyl](m-fluorophenyl)methanol], the values for the Emax at 10 µM in assay [1] and in assay [2] were 25 to 50% and under 25%, respectively.

As for `CCC[C@@H]1CC[C@H]([C@@H](O)c2cccc(O)c2)N1` [Compound 127, m-{(S)-[(2R,5R)-5-propyl-2-pyrrolidinyl]hydroxymeth-yl}phenol], the Emax at 10 µM in assay [1] is 25 to 50%; in assay [2] it was under 25%.

As to `CCC[C@H]1CCC[C@H]([C@H](O)c2cccc(Cl)c2)N1` [Compound 128, (R)-[(2R,6S)-6-propyl-2-piperidyl](m-chlorophenyl)methanol], the Emax at 10 µM in assay [1] was 25 to 50%; in assay [2], under 25%.

Take `CCC[C@H]1CCC[C@H]([C@@H](O)c2cccc(Cl)c2)N1` [Compound 129, (S)-[(2R,6S)-6-propyl-2-piperidyl](m-chlorophenyl)methanol]: the Emax at 10 µM was 25 to 50% in assay [1] and under 25% in assay [2].

Turning to `CCC[C@H]1CC[C@@H]([C@H](O)c2cccc(F)c2)N1` [Compound 130], the figures for the Emax at 10 µM in assay [1] and in assay [2] were 25 to 50% and under 25%, respectively.

In the case of `CCC[C@H]1CC[C@@H]([C@@H](O)c2cccc(F)c2)N1` [Compound 131, (S)-[(2S,5S)-5-propyl-2-pyrrolidinyl](m-fluorophenyl)methanol], the values for the Emax at 10 µM in assay [1] and in assay [2] were 50 to 75% and under 25%, respectively.

Take `CCC[C@@H]1CC[C@@H]([C@H](O)c2cccc(F)c2)N1` [Compound 132, (R)-[(2S,5R)-5-propyl-2-pyrrolidinyl](m-fluorophenyl)methanol]: the Emax at 10 µM is 25 to 50% in assay [1] and under 25% in assay [2].
